Assay results taken from the NIST ThermoML archive (doi:10.1021/je201391j).
± gives the expanded uncertainty stated by the source.

Conditions: 101 kPa, Liquid mixture 1, Pendant Drop method

CCCC[N+]1(C)CCCC1.O=S(=O)([N-]S(=O)(=O)C(F)(F)F)C(F)(F)F + CCCCO
Conditions	interfacial tension [mN/m]
293.15 K	0.666 ± 0.2
295.65 K	0.576 ± 0.2
298.15 K	0.443 ± 0.2
300.65 K	0.368 ± 0.2
303.15 K	0.276 ± 0.2
305.65 K	0.163 ± 0.2
